The values that follow come from ChEMBL document CHEMBL3507680, “University of Dundee, Gates Library screen for HepG2 cell viability”.

This data set is described as follows: Human HepG2 cell viability assay in 384 well format. In kind it is toxicity, cell-based. Also on record: dose 125 nL, time 70.5 hour; concentration not given beside the values. The following applies: HepG2 cells, read-out: Inhibition.
Take `COC1CCN(C(=O)Cn2cccc(C(F)(F)F)c2=O)C1` (centres undefined): the cytotoxicity at 70.5 h is -8.78%.
With `COc1ccc([C@@H](C)n2ccnc2-c2cc3n(n2)CCCNC3)cc1` the figure was 18.8%.
With `Cc1nc(CC(=O)N2CCCC[C@H](N(C)C)C2)cs1` the figure was -7.83%; with `CN(Cc1ccccc1-n1cccn1)C[C@@H]1CCCN2CCCC[C@H]12`, -8.12%; with `O=C(O)c1nc(SCc2ccc(F)cc2)ncc1Br`, -7.86%.
Take `O=C(NCCc1[nH]nc2c1CCCC2)C1CCCN(Cc2ccco2)C1` (centres undefined): the cytotoxicity at 70.5 h is -2.55%.
With `CN(CCO)c1ncc(-c2ccc(NC(=O)[C@@H]3CCCCN3)cc2)cn1` the figure was -1.72%; with `Cc1ncccc1CNC1CCCN(Cc2noc(C3CC3)n2)C1` (centres undefined), 0.441%.
With `CSc1ccccc1CC1CCCS(=O)(=O)C1` (centres undefined) the figure was 3.79%; with `Cc1csc([C@H]2C[C@@H]3CCN(C(=O)c4ccnnc4)C[C@H]3O2)n1`, -1.58%.
In the case of `CO[C@H]1CN(c2ccccc2)S(=O)(=O)[C@@]12CCN(Cc1ccccc1)C2`, the cytotoxicity at 70.5 h worked out at 19.1%.
Consider `COc1ccccc1CN1C[C@@H]2COC[C@]2(COCc2ccncc2)C1`, for which the cytotoxicity at 70.5 h is -10.2%.
With `Cc1ccn(-c2ccnc(N3CCN(c4ncccn4)CC3)n2)n1` the figure was -9.69%; with `Cc1cnn(CC2CCCN2C(=O)c2csc(-c3nnc[nH]3)n2)c1` (centres undefined), -5%.
With `CCN(CC)C(=O)C1CCN(c2ccc(Cl)cc2C#N)CC1` the figure was 10.1%; with `CC(C)n1cnnc1CNC(=O)c1cnc2ccccc2n1`, -3.77%; with `COc1ccccc1N1CCN(CC[C@H](O)c2ccccc2)CC1=O`, -12%.
With `Cc1cc(C2CCCN2C(=O)NCc2cccnc2N(C)C)on1` (centres undefined) the figure was 23.2%; with `Cn1cc(Cl)cc1C(=O)N1CCN(Cc2cccs2)CC1`, -12.6%; with `O=C(CCC1CCCC1)N1CCC(O)(C(F)(F)F)C1` (centres undefined), -0.869%.
On to `Cc1ccc(CN2CCOC3(CCN(C(=O)N4CCCC4)CC3)C2)cc1`, for which the cytotoxicity at 70.5 h is -2.45%.
For the molecule `CCn1ncc2c1C(COCC1CC1)N(Cc1nccs1)CC2` (centres undefined), the cytotoxicity at 70.5 h was -0.956%.
Take `COCCNC(=O)N1CCN(c2cc(F)ccc2F)CC1`: the cytotoxicity at 70.5 h was -10.1%.
With `CC(NC(=O)c1cccc[n+]1[O-])C1CC1` (centres undefined), the cytotoxicity at 70.5 h was -4.24%.
As for `CNc1cccc(C2CCCN(C(=O)c3cnccn3)C2)n1` (centres undefined), the figure is -0.4%; as for `Cc1ccc(CN2Cc3ccccc3O[C@]3(CC[C@H](CO)CC3)C2)o1`, 52%.
With `O=C(NC1CC1)[C@@H]1CCO[C@@H]2CCN(Cc3ccco3)C[C@H]21` the figure was -13.9%; with `COc1ccccc1OC1(C(=O)O)CCN(c2ccccn2)CC1`, 1.96%.
As for `Cc1n[nH]c(C2CN(CC(=O)NCCc3ccsc3)CCO2)n1` (centres undefined), the cytotoxicity at 70.5 h is -1.23%.
Take `CCN1CC2(CC1=O)CN(C(=O)c1ccoc1)CCN(C(=O)N(C)C)C2` (centres undefined): the cytotoxicity at 70.5 h stood at 3.23%.
As to `O=C1[C@H]2CN(Cc3cccs3)C[C@H]2CN1c1cncnc1`, the cytotoxicity at 70.5 h was -6.91%.
With `CCOC(C)c1nccn1CCC(=O)Nc1cc(C)on1` (centres undefined) the figure was 6.06%; with `CNC(=O)CN1CCC(c2cc(OC)cc(OC)c2)C1` (centres undefined), -7.18%.
Turning to `COCCN1C(=O)CC[C@]12CC[C@@H](NC(=O)c1cc(C)on1)CC2`, the cytotoxicity at 70.5 h is -5.63%.
Regarding `CNC(=O)CN1CCC(CN(C)Cc2ccccc2N(C)C)CC1`, the cytotoxicity at 70.5 h worked out at 1.48%.
With `CCc1ncc(C(=O)NCCN2CCNC2=O)cn1` the figure was -5.68%.
In the case of `C/C(=C/c1ccccc1)CNCc1cccc(C(N)=O)c1`, the cytotoxicity at 70.5 h is -10.9%.
As for `CCCc1nc(CN(CC)Cc2ccc(S(C)(=O)=O)cc2)no1`, the figure is 10.1%; as for `CCOCCCNS(=O)(=O)c1ccc2c(c1)NC(=O)C(C)O2` (centres undefined), 12.7%.
As for `CNS(=O)(=O)CCCN1CCN(C(C#N)c2ccccc2)CC1` (centres undefined), the figure is -11.2%; as for `CNC(=O)[C@H]1C[C@@H]2CCN(CCc3ccccc3)C[C@@H]2O1`, -4.11%.
As for `Cn1cc(CN2CC3(CCN(Cc4ccsc4)C3)C2)cn1`, the cytotoxicity at 70.5 h turned out to be 24.7%.
With `CC(C)c1nccn1CCCNC(=O)c1ccc(-c2cn[nH]c2)nc1` the figure was -3.19%; with `Fc1ccc(CN2CCC3(CCCN(c4nncs4)C3)C2)cc1` (centres undefined), -2.74%; with `Cn1cc(Cl)c(C(=O)N2CCc3nc4sccc4c(=O)n3CC2)n1`, -2.51%.
As for `O=C(NCC(O)c1ccccc1C(F)(F)F)c1cccnc1` (centres undefined), the figure is -11%; as for `Cc1ccc(NC(=O)N2CCCC(O)(CO)CC2)cc1Cl` (centres undefined), -4.85%.
Regarding `CC(C)C(=O)NCC(=O)NCC1CCN(c2cnn(C)c(=O)c2)CC1`, the cytotoxicity at 70.5 h stood at 23.1%.
As for `c1cnc(N2CCC3(CCN(CC4CCOC4)CC3)C2)nc1` (centres undefined), the figure is -1.96%; as for `COc1ccc(C(C)NC(=O)Cn2ccc(=O)n(C)c2=O)cc1F` (centres undefined), -2.29%.
As for `NCc1csc(CCc2ccccc2)n1`, the figure is -8.04%.
As for `Cc1noc(C(C)N2CCN(CCc3ccncc3)CC2)n1` (centres undefined), the figure is -4.19%; as for `CC(CNC(=O)c1cc(Cn2cnc3ccccc32)[nH]n1)N1CCCC1` (centres undefined), -7.82%.
Turning to `CCc1nnc2n1CCN(Cc1csc(-c3ccccc3)n1)C2`, the cytotoxicity at 70.5 h was -12.9%.
Regarding `Cc1[nH]ncc1C(=O)N1CCCC(n2cncn2)C1` (centres undefined), the cytotoxicity at 70.5 h is -1.06%.
For the molecule `Cc1ccc(CN2C[C@H]3C[C@H](C(=O)Nc4cccnc4)[C@@H](C2)O3)cc1`, the cytotoxicity at 70.5 h was determined as 2.68%.
On to `Cc1occc1C(=O)N1CCO[C@H]2[C@@H](Oc3ccccn3)CC[C@@H]21`, for which the cytotoxicity at 70.5 h came out at 4.46%.
As for `COc1ccc(C)cc1Nc1nc2c(C)nn(C)c2c(=O)n1C`, the figure is -5.48%; as for `Cc1cc(C(=O)NCc2cccs2)nc(N2CCCC2)n1`, -6.4%; as for `O=C(COc1cccc(Cl)c1)N1CCOCC(O)(CN2CCCC2)C1` (centres undefined), -3.79%.
With `CCN(Cc1nccn1C)C(=O)c1ccc(NCc2ccccc2)nc1`, the cytotoxicity at 70.5 h is -2.21%.
As for `COCC(=O)N[C@@H]1CN(Cc2ccc3c(c2)OCCO3)C[C@H]1O`, the figure is 9.74%.
With `CC(=O)Nc1nc(C(=O)NCCOc2cccc(C)c2)cs1` the figure was -8.98%; with `COC(=O)NCC(=O)N1CCCC1c1nc(-c2ccccc2F)c[nH]1` (centres undefined), -3.18%.
As for `COc1cc(C(C)NCc2cscn2)ccc1SC(F)F` (centres undefined), the figure is 30.9%.
As to `CCN(Cc1cnc(-c2ccccn2)nc1)C1CCS(=O)(=O)C1` (centres undefined), the cytotoxicity at 70.5 h stood at 5%.
For the molecule `Cc1ccc(NC2CCN(C(=O)COCC(F)(F)F)CC2)nn1`, the cytotoxicity at 70.5 h was 10.1%.
`CN(C)c1cc(C2CCCN(S(=O)(=O)C3CCCC3)C2)ccn1` (centres undefined): the cytotoxicity at 70.5 h was -7.46%.
On to `CC(CCS(C)(=O)=O)NC(=O)NCc1ccc2ccccc2c1` (centres undefined), for which the cytotoxicity at 70.5 h was 5.09%.
On to `CSC(C)CCN1CCCn2nc(CNC(=O)C3CCC3)cc2C1` (centres undefined), for which the cytotoxicity at 70.5 h was 0.861%.
With `COc1cc(C2CC(=O)Nc3c2cnn3C)ccc1O` (centres undefined) the figure was 46.1%; with `CCN1CCCn2c(nc(CNC(=O)c3cnoc3C)cc2=O)C1`, 5.12%.
On to `CC(O)CN(CC(=O)NC(=O)NCC(F)(F)F)c1ccccc1` (centres undefined), for which the cytotoxicity at 70.5 h is -11.1%.
As to `CNC(=O)C1Cc2ccccc2CN1CCC#N` (centres undefined), the cytotoxicity at 70.5 h was 4.8%.
Regarding `Cc1cccc(C(=O)N2CCC3(CC(C(=O)N(C)C(C)C)=NO3)C2)c1` (centres undefined), the cytotoxicity at 70.5 h was -3.14%.
Consider `CC(C)CCn1cc(C(C(=O)O)N2CCCN(C3CCCC3)CC2)cn1` (centres undefined), for which the cytotoxicity at 70.5 h was -9.63%.
With `CC(C)C1CN(C(=O)c2cn3cc(Cl)cnc3n2)CCCN1CC1CC1` (centres undefined) the figure was 20.2%; with `CCc1cc(C(C)Nc2nc(-c3cccnc3)nc3c2CNC3)on1` (centres undefined), -5.83%; with `O=C(c1ccc2cc[nH]c2c1)N1CCC(Nc2cccnn2)CC1`, -4.46%.
On to `CC(C)n1cnc2c(-c3cccnc3)nc(C3CCNCC3)cc21`, for which the cytotoxicity at 70.5 h turned out to be 12%.
As to `CN(C)c1cc(CNC(=O)Nc2ccc(N3CCCC3)nc2)ccn1`, the cytotoxicity at 70.5 h was found to be 1.53%.
With `c1csc(-c2nc(CN3CCOC(Cn4cncn4)C3)co2)c1` (centres undefined) the figure was -0.51%; with `Cc1ccc(CN(C)C(=O)c2cc3c(c(S(N)(=O)=O)c2)CCC3)o1`, -1.72%.
Consider `CC(C)(C)NC(=O)CNC(=O)c1cccnc1Oc1cccnc1`, for which the cytotoxicity at 70.5 h was -6.52%.
Turning to `Cc1ccc(C)n1-c1ccc(C(=O)NCCNc2ncccn2)cc1`, the cytotoxicity at 70.5 h was -7.02%.
Take `COCc1nnc(-c2cccc(C(=O)N(C(C)C)C3CCC3)c2)o1`: the cytotoxicity at 70.5 h was -12.7%.
As for `O=C1COC2(CCN(c3ncccn3)CC2)CN1`, the figure is -1.8%; as for `CCOC(=O)NCc1nn(CCN2CCCC2)c(=O)c2ccccc12`, 1.9%; as for `CC(C)c1nsc(N2CCOCC2)n1`, -27.4%.
As for `O=C1CC2(CCCC2)CC(=O)N1CCn1cnnc1`, the figure is -8.05%; as for `CN(C)c1nccc(C2CCCCN2Cc2cnn3cccnc23)n1` (centres undefined), -7.45%; as for `c1ccc(-c2cc(CNCCN3CCOCC3)c3nnnn3c2)cc1`, -0.928%.
In the case of `Cc1nc(N2CCCC2C(=O)NCc2ccsc2)nc2ccccc12` (centres undefined), the cytotoxicity at 70.5 h was -6.09%.
With `Cc1nc(O)cc(CCNC(=O)c2ccc(CN3CCCCC3)cc2)n1` the figure was 0.488%; with `O=C1CC2(CCCNC2)C(=O)N1Cc1ccc(Cl)cc1` (centres undefined), -15.9%.
As to `Cn1cc(CNc2nc3cc(Cl)ccc3n2C)cn1`, the cytotoxicity at 70.5 h was -0.411%.
Take `CN(C)c1ncccc1N(C)C(=O)Cn1cc(-c2ccccc2)nn1`: the cytotoxicity at 70.5 h was -3.41%.
For the molecule `CCC(NC(N)=O)c1ccccc1OCC(=O)N1CCCC1` (centres undefined), the cytotoxicity at 70.5 h was -10.1%.
With `O=C(c1cc(Cn2cnc3ccccc32)on1)N1CCOCC1` the figure was -17.3%.
